# Source: patent US7208517B1, “Endothelin antagonists” (Abbott Labortories, priority 1994, dated 2007)
# Target: T1, ETA Receptor (Rattus norvegicus, UniProt P26684)
# T1 construct: endogenous in cells; host or cells: MMQ rat pituitary cells (membranes)
# T1 sequence (P26684 21-426): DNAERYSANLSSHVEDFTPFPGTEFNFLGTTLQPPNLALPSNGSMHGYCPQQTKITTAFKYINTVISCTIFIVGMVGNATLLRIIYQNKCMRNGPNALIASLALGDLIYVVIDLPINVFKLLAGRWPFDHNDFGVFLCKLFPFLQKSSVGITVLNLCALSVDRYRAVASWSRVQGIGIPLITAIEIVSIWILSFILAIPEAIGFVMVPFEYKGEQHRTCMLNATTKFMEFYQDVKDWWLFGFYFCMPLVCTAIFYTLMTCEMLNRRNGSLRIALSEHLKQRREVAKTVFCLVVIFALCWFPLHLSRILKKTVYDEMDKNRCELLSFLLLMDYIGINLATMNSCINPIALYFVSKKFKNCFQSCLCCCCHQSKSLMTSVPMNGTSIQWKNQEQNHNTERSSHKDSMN
# Assay: [125I]ET-1 binding to membranes from MMQ cells (ETA receptor binding assay, Table 4)
# Conditions: test compound at 1 μM; 0.1 nM [125I]ET-1, MMQ cell membranes, 4 hours at 25° C.
row,Structure (SMILES),% Inhibition of ETA at 1 μM
1,"CCCCN(CCCC)C(=O)CN1CC(c2ccc3c(c2)CCO3)C(C(=O)O)C1c1ccc(C(C)(C)C)cc1 (stereo not drawn) [Example 159, trans,trans-1-(N,N-Di(n-butyl)aminocarbonylmethyl)-2-(4-t-butylphenyl)-4-(5-benzo-2,3-dihydrofuranylpyrrolidine-3-carboxylic acid]",36.2%
2,"CCCCN(CCCC)C(=O)CN1CC(c2ccc3c(c2)OCO3)C(C(=O)O)C1[C@H]1CC[C@H](OC)CC1 (stereo partly drawn) [Example 161, trans,trans-1-(N,N-Di(n-butyl)aminocarbonylmethyl)-2-(syn-4-methoxycyclohexyl)-4-(1,3-benzodioxol-5-yl)pyrrolidine-3-carboxylic acid]",93.6%
3,"CCCCN(CCCC)C(=O)CN1CC(c2ccc3c(c2)CCO3)C(C(=O)O)C1c1ccc2c(c1)CCO2 (stereo not drawn) [Example 162B, trans,trans-1-(N,N-Di(n-butyl)aminocarbonylmethyl)-2,4-di(5-benzo-2,3-dihydrofuranyl)pyrrolidine-3-carboxylic acid]",91.5%
4,"CCCCN(CCCC)C(=O)CN1CC(c2ccc3c(c2)CCO3)C(C(=O)O)C1c1ccoc1 (stereo not drawn) [Example 163, trans,trans-1-(N,N-Di(n-butyl)aminocarbonylmethyl)-2-(3-furyl)-4-(5-benzo-2,3-dihydrofuranyl)pyrrolidine-3-carboxylic acid]",90.6%
5,"CCCCN(CCCC)C(=O)CN1CC(c2cccc(F)c2)C(C(=O)O)C1c1ccc(OC)cc1 (stereo not drawn) [Example 164, trans,trans-1-(N,N-Di(n-butyl)aminocarbonylmethyl)-2-(4-methoxyphenyl)-4-(3-fluorophenyl)pyrrolidine-3-carboxylic acid]",98.6%
6,"CCCCN(CCCC)C(=O)CN1CC(c2cccnc2)C(C(=O)O)C1c1ccc(OC)cc1 (stereo not drawn) [Example 165, trans,trans-1-(N,N-Di(n-butyl)aminocarbonylmethyl)-2-(4-methoxyphenyl)-4-(3-pyridyl)pyrrolidine-3-carboxylic acid]",54.1%
7,"CCCCN(CCCC)C(=O)CN1CC(c2ccc3c(c2)OCO3)C(C(=O)O)C1c1cccc(F)c1 (stereo not drawn) [Example 167, trans,trans-1-(N,N-Di(n-butyl)aminocarbonylmethyl)-2-(3-fluorophenyl)-4-(1,3-benzodioxol-5-yl)pyrrolidine-3-carboxylic acid]",94.4%
8,"CCCN(CCN1CC(c2ccc3c(c2)OCO3)C(C(=O)O)C1c1ccc(OC)cc1)C(=O)OCC(C)C (stereo not drawn) [Example 295, trans—trans-2-(4-Methoxyphenyl)-4-(1,3-benzodioxol-5-yl)-1-[2-(N-propyl-N-iso-butoxycarbonylamino)ethyl]-pyrrolidine-3-carboxylic acid]",93.0%
9,"COc1ccc(C2C(C(=O)O)C(c3ccc4c(c3)OCO4)CN2CC(=O)N2CCc3ccccc3C2)cc1 (stereo not drawn) [Example 296, trans—trans-2-(4-Methoxyphenyl)-4-(1,3-benzodioxol-5-yl)-1-[1,2,3,4-tetrahydroisoquinolin-2-carbonylmethyl]-pyrrolidine-3-carboxylic acid]",87.1%
10,"CCCN(CCN1CC(c2ccc3c(c2)OCO3)C(C(=O)O)C1c1ccc(OC)cc1)C(=O)N(C)C (stereo not drawn) [Example 297, trans—trans-2-(4-Methoxyphenyl)-4-(1,3-benzodioxol-5-yl)-1-[2-(N-propyl-N-dimethylaminocarbonylamino)ethyl]-pyrrolidine-3-carboxylic acid]",84.4%
11,"CCCCCS(=O)(=O)N(CCC)CCN1CC(c2ccc3c(c2)OCO3)C(C(=O)O)C1c1ccc(OC)cc1 (stereo not drawn) [Example 299, trans,trans-2-(4-Methoxyphenyl)-4-(1,3-benzodioxol-5-yl)-1-(2-(N-propyl-N-n-pentanesulfonylamino)ethyl)-pyrrolidine-3-carboxylic acid]",90.4%
12,"C=C(C)CS(=O)(=O)N(CCC)CCN1CC(c2ccc3c(c2)OCO3)C(C(=O)O)C1c1ccc(OC)cc1 (stereo not drawn) [Example 301, trans,trans-2-(4-Methoxyphenyl)-4-(1,3-benzodioxol-5-yl)-1-(2-(N-propyl-N-(2-methyl-2-propenesulfonyl)amino)ethyl)-pyrrolidine-3-carboxylic acid]",96.7%
13,"CCCCCCCS(=O)(=O)N(CCC)CCN1CC(c2ccc3c(c2)OCO3)C(C(=O)O)C1c1ccc(OC)cc1 (stereo not drawn) [Example 304, trans,trans-2-(4-Methoxyphenyl)-4-(1,3-benzodioxol-5-yl)-1-(2-(N-propyl-N-heptanesulfonylamino)ethyl)-pyrrolidine-3-carboxylic acid]",89.7%
14,"CCCCN(CCCC)C(=O)CN1CC(c2ccc3c(c2)OCO3)C(C(=O)O)C1c1ccc(CC)cc1 (stereo not drawn) [Example 307, trans—trans-2-(4-Ethylphenyl)-4-(1,3-benzodioxol-5-yl)-1-[N,N-di(n-butyl)aminocarbonylmethyl]-pyrrolidine-3-carboxylic acid]",92.2%
15,"CCCCN(CCCC)C(=O)CN1CC(c2ccc3c(c2)OCO3)C(C(=O)O)C1CCOC (stereo not drawn) [Example 309, trans—trans-2-(2-Methoxyethyl)-4-(1,3-benzodioxol-5-yl)-1-[N,N-di(n-butyl)aminocarbonylmethyl]-pyrrolidine-3-carboxylic acid]",80.7%
16,"COc1ccc(C2C(C(=O)O)C(c3ccc4c(c3)OCO4)CN2CC(=O)N(C2CCCCC2)C2CCCCC2)cc1 (stereo not drawn) [Example 311, trans—trans-2-(4-Methoxyphenyl)-4-(1,3-benzodioxol-5-yl)-1-[N,N-dicyclohexylaminocarbonylmethyl]-pyrrolidine-3-carboxylic acid]",92.3%
17,"CCCN(CCN1CC(c2ccc3c(c2)OCO3)C(C(=O)O)C1c1ccc(OC)cc1)C(=O)OC(C)(C)C (stereo not drawn) [Example 312, trans—trans-2-(4-Methoxyphenyl)-4-(1,3-benzodioxol-5-yl)-1-[2-(N-propyl-N-tert-butoxycarbonylamino)ethyl]-pyrrolidine-3-carboxylic acid]",88.2%
18,"CCCCN(CCCC)C(=O)CN1CC(c2ccc3c(c2)OCO3)C(C(=O)O)C1c1ccc(OC)c(F)c1 (stereo not drawn) [Example 313, trans—trans-2-(4-Methoxy-3-fluorophenyl)-4-(1,3-benzodioxol-5-yl)-1-[N,N-di(n-butyl)aminocarbonylmethyl]-pyrrolidine-3-carboxylic acid]",96.3%

# Now from value to compound:
row,% Inhibition of ETA at 1 μM,Structure (SMILES)
1,80.3%,"CCCCN(CCCC)C(=O)CN1CC(c2ccc3c(c2)OCO3)C(C(=O)O)C1C1CCC(OC)CC1 (stereo not drawn) [Example 160B, trans,trans-1-(N,N-Di(n-butyl)aminocarbonylmethyl)-2-(anti-4-methoxycyclohexyl)-4-(1,3-benzodioxol-5-yl)pyrrolidine-3-carboxylic acid]"
2,91.6%,"CCCCN(CCCC)C(=O)CN1CC(c2ccc3c(c2)OCO3)C(C(=O)O)C1c1ccccc1F (stereo not drawn) [Example 166, trans,trans-1-(N,N-Di(n-butyl)aminocarbonylmethyl)-2-(2-fluorophenyl)-4-(1,3-benzodioxol-5-yl)pyrrolidine-3-carboxylic acid]"
3,77.7%,"COc1ccc(C2C(C(=O)O)C(c3ccc4c(c3)OCO4)CN2CC(=O)N2CCCC(C)(C)C2)cc1 (stereo not drawn) [Example 294, trans—trans-2-(4-Methoxyphenyl)-4-(1,3-benzodioxol-5-yl)-1-[3,3-dimethylpiperidinyl-carbonylmethyl]-pyrrolidine-3-carboxylic acid]"
4,93.3%,"CCCN(CCN1CC(c2ccc3c(c2)OCO3)C(C(=O)O)C1c1ccc(OC)cc1)S(=O)(=O)c1ccc([N+](=O)[O-])cc1 (stereo not drawn) [Example 298, trans,trans-2-(4-Methoxyphenyl)-4-(1,3-benzodioxol-5-yl)-1-(2-(N-propyl-N-(4-nitrobenzenesulfonyl)amino)ethyl)-pyrrolidine-3-carboxylic acid]"
5,86.6%,"CCC1CCCCN1C(=O)CN1CC(c2ccc3c(c2)OCO3)C(C(=O)O)C1c1ccc(OC)cc1 (stereo not drawn) [Example 302, trans—trans-2-(4-Methoxyphenyl)-4-(1,3-benzodioxol-5-yl)-1-[2-ethylpiperidinyl-carbonylmethyl]-pyrrolidine-3-carboxylic acid]"
6,87.4%,"CCOC(=O)N(CC)CCN1CC(c2ccc3c(c2)OCO3)C(C(=O)O)C1c1ccc(OC)cc1 (stereo not drawn) [Example 305, trans—trans-2-(4-Methoxyphenyl)-4-(1,3-benzodioxol-5-yl)-1-[2-(N-ethyl-N-ethoxycarbonylamino)ethyl]-pyrrolidine-3-carboxylic acid]"
7,93.3%,"CCCCCCS(=O)(=O)N(CCC)CCN1CC(c2ccc3c(c2)OCO3)C(C(=O)O)C1c1ccc(OC)cc1 (stereo not drawn) [Example 306, trans,trans-2-(4-Methoxyphenyl)-4-(1,3-benzodioxol-5-yl)-1-(2-(N-propyl-N-hexanesulfonylamino)ethyl)-pyrrolidine-3-carboxylic acid]"
8,87.1%,"CCCCCS(=O)(=O)N(CC)CCN1CC(c2ccc3c(c2)OCO3)C(C(=O)O)C1c1ccc(OC)cc1 (stereo not drawn) [Example 310, trans,trans-2-(4-Methoxyphenyl)-4-(1,3-benzodioxol-5-yl)-1-(2-(N-ethyl-N-n-pentanesulfonylamino)ethyl)-pyrrolidine-3-carboxylic acid]"
9,86.0%,"CCCCCS(=O)(=O)N(CCC)CCN1CC(c2ccc3c(c2)OCO3)C(C(=O)O)C1CCC (stereo not drawn) [Example 314, trans,trans-2-(Propyl)-4-(1,3-benzodioxol-5-yl)-1-(2-(N-propyl-pentanesulfonylamino)ethyl)pyrrolidine-3-carboxylic acid]"
